Measurements taken from patent US20110123512A1, “METHOD OF REGULATING THE HEAT SHOCK RESPONSE” (priority 2008, published 2011).
Entries after “also recorded” stand apart in the source; their conditions may differ.

Key:
[1] = test system: cadmium responsive genes, cdr-1 and mtl-1; assay: cadmium stress: cadmium-responsive gene induction; assay type: in vivo, C. elegans
Experimental: (§1) mRNA was prepared using the “ABSOLUTELY RNA® Nanoprep Kit” (Stratagene, Catalog #400753). The manufacturer's protocol was adapted to achieve maximal lysis of worms. Briefly, 5-10 adult animals were picked either from the control or experimental plates into 100 μl of buffer made up by mixing 7 μl 13-ME (instead of the recommended 0.7 μl 13-ME), with 100 μl Lysis Buffer provided by the manufacturer. The suspension was subjected to numerous cycles of freeze-thawing in liquid nitrogen and vortexing until the animals were completely lysed. RNA was then purified as detailed in the manufacturer's protocol. mRNA was reverse transcribed using the ISCRIPT™ cDNA Synthesis Kit (Bio-Rad, Catalog #170-8891). Quantitative PCR was performed using iQ™ SYBR® Green Supermix (Bio-Rad, Catalog #170-8880), in the iCycler system (Bio-Rad) at a 25 μl sample volume, in thin wall 200 μl PCR plates (Cat. No. 223-9441) sealed with the optical quality sealing tape (Cat. No. 223-9444).
The relative amounts of hsp mRNA were determined using the Comparative CT Method for quantitation (14). The levels of hsp mRNA levels within an experiment were determined relative to actin mRNA, which was used as the internal control. The range of input of RNA was determined using serial dilutions of the cDNA that yielded a CT value of <30, for both the target cDNA and actin was used in all experiments. This typically corresponded to 1 μl of the total cDNA obtained per sample. CT values were obtained in triplicate for each sample (technical triplicate), and three samples were used per experiment. Each experiment was then repeated a minimum of three times. All relative changes of hsp mRNA in the mutant strains were normalized to maximal wild-type values, except where otherwise noted.
Sterile-filtered cadmium chloride was added to a final concentration of 50 μM to standard, autoclaved, NGM medium, and used to make plates. OP50 was seeded onto the plates as described above. […] These animals were then harvested for quantitative RT-PCR. […]

[2] = test system: hsp70 (C12C8.1) mRNA; assay: cadmium stress: hsp70 (C12C8.1) induction; assay type: in vivo, C. elegans; settings: 50 μM
Experimental: as §1
(§2) The relative amounts of hsp mRNA were determined using the Comparative CT Method for quantitation (14). The levels of hsp mRNA levels within an experiment were determined relative to actin mRNA, which was used as the internal control. The range of input of RNA was determined using serial dilutions of the cDNA that yielded a CT value of <30, for both the target cDNA and actin was used in all experiments. […]

[3] = test system: hsp70 (C12C8.1) mRNA; assay: effect of dauer pheromone on the heat shock response; assay type: in vivo, C. elegans
Experimental: C. elegans strains were grown as described above, and all animals were heat shocked at a population density of 10 adults per plate. Sufficient N values were obtained by repeating each heat shock experiment a minimum of 3 times, with 3 samples of 10 animals per plate, per experiment. Heat shock at 30° C. or 34° C., for 15 minutes on agarose plates was achieved by sealing plates with parafilm, further sealing within zip-lock bags, and immersing in a water bath equilibrated to the appropriate temperature. Following heat shock, the parafilm was removed and the animals were allowed to recover at 20° C. for the course of the experiment.
mRNA was prepared using the “ABSOLUTELY RNA® Nanoprep Kit” (Stratagene, Catalog #400753). […] Quantitative PCR was performed using iQ™ SYBR® Green Supermix (Bio-Rad, Catalog #170-8880), in the iCycler system (Bio-Rad) at a 25 μl sample volume, in thin wall 200 μl PCR plates (Cat. No. 223-9441) sealed with the optical quality sealing tape (Cat. No. 223-9444).
as §2

[4] = test system: hsp70 (C12C8.1) expression; assay: heat shock induction of hsp70 (C12C8.1) in worms anesthetized with volatile anesthetics; assay type: in vivo, C. elegans; settings: for hsp70 (C12C8.1) expression in somatic cells: wild-type animals exposed to VAs for the full duration of heat shock (34° C., 15 minutes), 2 hours after recovery; for fraction of animals expressing GFP (hsp70 (C12C8.1) promoter GFP reporter): wild-type animals, VAs during heat shock, 2 hours post-heat shock, control 100%
[5] = test system: C. elegans; assay: anesthesia: inhibition of movement and recovery; assay type: in vivo; settings: within the first 15 minutes following exposure; no death; 10 adults per plate
Experimental: The VA anesthetics used were 2-Bromo-2-chloro-1,1,1-trifluoroethane (Halothane, Fluka, catalog #16730) and Isoflurane (Webster Veterinary NDC#14043-220-05). VA anesthetics were delivered as follows: lids of 1.5 ml eppendorf tubes were cut off, VA was pipetted into the lids, and the lids containing VAs were placed onto plates containing 10 adult wild-type or gcy-8 animals grown as described, and the plates were immediately sealed with parafilm. To inhibit neuronal signaling during the course of heat shock, the VA containing lids were placed on plates 5 minutes prior to the heat shock, and retained during the heat shock treatment of 34° C. for 15 minutes. The lids were then removed 10 minutes post-heat shock during recovery at 20° C., when the plates had equilibrated to 20° C. To inhibit neuronal signaling following the administration of heat shock, animals were heat shocked, and then the lids containing the same volume of VA was placed onto plates 20 minutes post-heat shock, and removed after 30 minutes.
As has been described before, the effect of the VA is extremely variable in any given population of C. elegans (15, 16) and is also influenced by other environmental factors, such as population density, to which the animals are exposed (15). Therefore it was necessary to titrate the amount of VA used for each experiment. […]

## [Cl][Cd][Cl] [cadmium, cadmium chloride]
[1]; gcy-8 (thermosensory deficient) adult animals
  expression of cdr-1 and mtl-1 upon exposure to cadmium: can induce
[1]; osm-9 and ocr-2 mutant animals
  expression of cdr-1 and mtl-1 upon exposure to cadmium: deficient in their ability to upregulate
[1]; wild-type and gcy-8 mutant animals, 3 hours of exposure, 50 μM
  cdr-1 mRNA: similarly increased
[2]; after 16 hours of exposure
  hsp70 (C12C8.1) mRNA further induction: more than 10 fold
[2]; wild-type and gcy-8 mutant animals, 3 hours of exposure
  hsp70 (C12C8.1) mRNA: similarly increased

## C[C@H](CCCCC(=O)O)O[C@@H]1O[C@@H](C)[C@H](O)C[C@H]1O [dauer pheromone]
[3]; gcy-8 mutant animals exposed to dauer pheromone, compared with heat-shocked wild-type under optimal growth conditions
  amounts of hsp70 (C12C8.1) mRNA after heat shock: induced even higher amounts
[3]; wild-type animals, high concentrations of dauer pheromone prior to or during heat shock (34° C., 15 minutes)
  amounts of hsp70 (C12C8.1) mRNA after heat shock: decreased

## FC(F)(F)C(Cl)Br (stereo not shown) [halothane, 2-Bromo-2-chloro-1,1,1-trifluoroethane]
[4]
  hsp70 (C12C8.1) expression in somatic cells: inhibition; also recorded: marked decrease
  fraction of animals expressing GFP (hsp70 (C12C8.1) promoter GFP reporter): 20%
[5]
  volume of VA that inhibited the movement of 100% of the animals on a plate: 5 to 15 µL

## FC(F)OC(Cl)C(F)(F)F (stereo not shown) [isoflurane, Isoflurane]
[4]
  hsp70 (C12C8.1) expression in somatic cells: inhibition; also recorded: marked decrease
  fraction of animals expressing GFP (hsp70 (C12C8.1) promoter GFP reporter): 20%
[5]
  volume of VA that inhibited the movement of 100% of the animals on a plate: 10 to 25 µL
